Data set [1] is described as follows: Growth inhibition of human breast cancer stem cells. The format is functional.
Data set [2] can be described thus: Growth inhibition of human mammary epithelial cells. The format is cell-based. To be noted: Epithelial cell.
The nature of data set [3]: Growth inhibition of human mammary epithelial cells at 20 uM. The format is cell-based. To be noted: epithelial cell.
Another data set is filed under the species Homo sapiens. As to the kind of experiment: Growth inhibition of human breast cancer stem cells at 20 uM. Type of data set: functional.
Data set [4] is described as follows: Stability in presence of glutathione containing medium assessed as compound remaining measured after 48 hrs by UPLC-MS method. To be noted: read-out: Stability. Type of data set: physicochemical.
A short description of data set [5]: Stability in phosphate buffered saline with 0.1% DMSO assessed as compound remaining measured after 48 hrs by UPLC-MS method. Type of data set: physicochemical. The conditions noted are these: read-out: Stability.
The nature of data set [6]: Stability in human plasma assessed as compound remaining measured after 5 hrs by UPLC-MS method. To be noted: read-out: Stability. The format is ADME, cell-free.
Data set [7] is described as follows: Protein binding in human plasma incubated for 48 hrs by UPLC-MS method. To be noted: read-out: PPB (converted). Type of data set: ADME, cell-free.
A short description of data set [8]: Solubility in phosphate buffered saline at 100 microM with 1% DMSO at pH 7.4 at 23 degC by UPLC-MS method. The format is physicochemical.

Molecules are shown by their SMILES. pEC50: −log10 of the molar value. Values after ≈ are worked out from the molar mass of the structure shown. Active and inactive are the calls of the source. The calls are words filed in the database; no cut-off is given here.

A word on the pEC50: it is the negative decadic logarithm of the EC50, by convention in mol/L. Read a high pEC50 as a small EC50. Consider `O=C(COc1ccc(Cl)cc1Br)N/N=C/c1ccc[nH]1`, for which the pEC50 in data set [1] was 5.50; in data set [2], 4.68.
With `CC(C)(C)c1ccc(C2CC2C(=O)N/N=C/c2ccc[nH]2)cc1` (stereo not drawn), the pEC50 in [1] was 6.10; in data set [2] it was 5.67.
Consider `O=C(COc1cc(Cl)ccc1Cl)N/N=C/c1ccc[nH]1`, for which the negative-log EC50 (pEC50) in data set [1] is 5.47. The “growth inhibition (GI)” value in data set [3] is reported as “Non-toxic”.
In the case of `C/C(=N\NC(=O)COc1ccc(Cl)cc1Cl)c1ccc[nH]1`, the “growth inhibition (GI)” value in the data set listed under Homo sapiens was “inactive”. Also, in [3], the “growth inhibition (GI)” value is recorded as “Non-toxic”.
With `O=C(COc1ccc(Cl)cc1)N/N=C/c1ccc[nH]1`, the pEC50 in data set [1] is 4.65. In addition, in [3], the “growth inhibition (GI)” value is “Non-toxic”.
Regarding `O=C(COc1ccccc1Cl)N/N=C/c1ccc[nH]1`, the pEC50 in data set [1] was 4.47. Further, in data set [3], the “growth inhibition (GI)” value was “Non-toxic”.
Consider `Cc1ccc(/C=N/NC(=O)COc2ccc(Cl)cc2Cl)[nH]1`, for which the pEC50 in [1] is 4.84; in [2], 4.77.
In the case of `O=C(COc1ccc(Cl)cc1Cl)N/N=C/c1cc2ccccc2[nH]1`, the pEC50 in data set [1] was 3.90; in [2], 4.63.
For the compound `O=C(COc1ccc(Cl)cc1Cl)N/N=C/c1ccco1`, the “growth inhibition (GI)” value in the data set filed under Homo sapiens was “inactive”. Further, the “growth inhibition (GI)” value in data set [3] is “Non-toxic”.
Take `N#Cc1ccccc1OCC(=O)N/N=C/c1ccc[nH]1`: the “growth inhibition (GI)” value in the data set listed under Homo sapiens was “inactive”. For the same compound, the “growth inhibition (GI)” value in data set [3] is listed as “Non-toxic”.
`CC(C)(C)c1ccc2c(c1)OC(C(=O)N/N=C/c1ccc[nH]1)CO2` (stereo not drawn): the values for the pEC50 in [1] and in [2] were 5.60 and 4.83, respectively.
As for `O=C(COc1ccc(Cl)cc1Cl)N/N=C/c1cc[nH]n1`, the “growth inhibition (GI)” value in the data set filed under Homo sapiens was “inactive”. Besides, the “growth inhibition (GI)” value in data set [3] was “Non-toxic”.
On the same counts, the results for `Cn1cccc1/C=N/NC(=O)COc1ccc(Cl)cc1Cl` are “inactive” and “Non-toxic”.
Compound `O=C(N/N=C/c1ccc[nH]1)c1cc2ccccc2o1` showed a negative logarithm of the EC50 (pEC50) in data set [1] of 5.20. The “growth inhibition (GI)” value in data set [3] is reported as “Non-toxic”.
As for `CC(Oc1cc(Cl)ccc1Cl)C(=O)N/N=C/c1ccc[nH]1` (stereo not drawn), the figures for the pEC50 in data set [1] and in data set [2] were 4.48 and 4.01, respectively.
As for `O=C(N/N=C/c1ccc[nH]1)C1Cc2ccccc2O1` (stereo not drawn), the “growth inhibition (GI)” value in the data set listed under Homo sapiens was “inactive”. Also, in data set [3], the “growth inhibition (GI)” value is “Non-toxic”.
Regarding `O=C(COc1ccc2ccccc2c1Br)N/N=C/c1ccc[nH]1`, the values for the pEC50 in data set [1] and in [2] were 5.95 and 5.52, respectively.
For the compound `Cc1cc(C)c(OCC(=O)N/N=C/c2ccc[nH]2)c(C)c1`, the pEC50 in [1] is 5.03. Besides, the “growth inhibition (GI)” value in data set [3] is listed as “Non-toxic”.
Take `O=C(COc1c(Cl)cccc1Cl)N/N=C/c1ccc[nH]1`: the pEC50 in data set [1] is 3.90. Also, the “growth inhibition (GI)” value in data set [3] is recorded as “Non-toxic”.
`CC(Oc1ccc(F)cc1Cl)C(=O)N/N=C/c1ccc[nH]1` (stereo not drawn): the negative-log EC50 (pEC50) in data set [1] is 4.45. In addition, the “growth inhibition (GI)” value in data set [3] was “Non-toxic”.
The like results for `O=C(CCc1ccc2c(c1)OCO2)N/N=C/c1ccc[nH]1` were, in that order, 4.27 and “Non-toxic”.
In data set [1], `O=C(N/N=C/c1ccc[nH]1)C1CC1c1ccccc1` (stereo not drawn) showed a pEC50 of 4.89. Moreover, the “growth inhibition (GI)” value in [3] is listed as “Non-toxic”.
One may read the solubility (kinetic) as the concentration staying in solution when a stock, usually in DMSO, is diluted into the medium. For the compound `O=C(COc1c(Cl)cc(Cl)cc1Cl)N/N=C/c1ccc[nH]1`, the remaining at 48 h in data set [4] is 85%; in data set [5], 76%. Also, the pEC50 in data set [1] was 5.94; in data set [2], 4.56. Also, in data set [6], the remaining at 5 h was 49%. In addition, the fraction unbound at 48 h in data set [7] was 0.012. Besides, the solubility (kinetic) at 100 µM in data set [8] stood at 6.3 µM (≈ 2.18 µg/mL).
For the compound `O=C(COc1ccc(Cl)cc1Cl)N/N=C/c1cccs1`, the “growth inhibition (GI)” value in the data set filed under Homo sapiens is “inactive”. For the same compound, the “growth inhibition (GI)” value in [3] is “Non-toxic”.
With `O=C(COc1ccc(F)cc1Cl)N/N=C/c1ccc[nH]1`, the pEC50 was 5.05 in data set [1] and 4.47 in data set [2].
For the compound `O=C(COc1ccc(Cl)cc1Cl)N/N=C/c1ccccn1`, the “growth inhibition (GI)” value in the data set filed under Homo sapiens is “inactive”. Moreover, the “growth inhibition (GI)” value in data set [3] is “Non-toxic”.
For the compound `O=C(CSc1ccc(Cl)cc1Cl)N/N=C/c1ccc[nH]1`, the pEC50 in data set [1] was 5.64; in data set [2] it was 4.74.
Turning to `COc1ccccc1OCC(=O)N/N=C/c1ccc[nH]1`, the “growth inhibition (GI)” value in the data set listed under Homo sapiens is “inactive”. Further, the “growth inhibition (GI)” value in data set [3] is reported as “Non-toxic”.
Compound `O=C(N/N=C/c1ccc[nH]1)C1CC1c1ccc(Cl)cc1Cl` (stereo not drawn) gave a negative logarithm of the EC50 (pEC50) in data set [1] of 4.23. For the same compound, the “growth inhibition (GI)” value in data set [3] is listed as “Non-toxic”.
Compound `O=C(COc1ccc(Cl)cc1Cl)N/N=C/c1ccc[nH]1` showed a pEC50 in [1] of 5.48. Besides, in data set [3], the “growth inhibition (GI)” value was “Non-toxic”.
As for `Cc1cc(Cl)ccc1OCC(=O)N/N=C/c1ccc[nH]1`, the values for the pEC50 in [1] and in data set [2] were 5.54 and 4.57, respectively.
For the compound `O=C(COc1ccc(Cl)cc1Cl)N/N=C/c1ccccc1`, the “growth inhibition (GI)” value in the data set listed under Homo sapiens is “inactive”. The “growth inhibition (GI)” value in data set [3] is “Non-toxic”.
`Cc1cc(Br)ccc1OCC(=O)N/N=C/c1ccc[nH]1` gave a pEC50 in data set [1] of 5.42. Moreover, the “growth inhibition (GI)” value in data set [3] is recorded as “Non-toxic”.
As for `O=C(N/N=C/c1ccc[nH]1)C1COc2cc3ccccc3cc2O1` (stereo not drawn), the pEC50 in data set [1] is 5.38; in data set [2] it was 4.72.
On to `Cc1ccccc1NCC(=O)N/N=C/c1ccc[nH]1`, for which the “growth inhibition (GI)” value in the data set filed under Homo sapiens is “inactive”. Also, the “growth inhibition (GI)” value in data set [3] is reported as “Non-toxic”.
As to `O=C(COc1ccc2c(c1)OCO2)N/N=C/c1ccc[nH]1`, the pEC50 in data set [1] is 4.44; in [2] it was 4.68.
For the compound `O=C(COc1ccc(Cl)cc1Cl)N/N=C/c1ccccc1O`, the pEC50 was 4.10 in data set [1] and 4.25 in [2].
In the case of `O=C(COc1ccc(Cl)cc1Cl)N/N=C/c1c[nH]cn1`, the “growth inhibition (GI)” value in the data set listed under Homo sapiens is “inactive”. Also, the “growth inhibition (GI)” value in data set [3] is “Non-toxic”.
`Cc1ccccc1OCC(=O)N/N=C/c1ccc[nH]1`: the negative logarithm of the EC50 (pEC50) in data set [1] is 4.39. Also, in [3], the “growth inhibition (GI)” value is reported as “Non-toxic”.

Values taken from ChEMBL document CHEMBL2086332, “Identification of a selective small molecule inhibitor of breast cancer stem cells” (Bioorg Med Chem Lett, 2012).
